{"source": "patent US8986696B2", "about": "“Trans-capsular administration of p38 map kinase inhibitors into orthopedic joints” (DePuy Mitek, Inc., priority 2007, dated 2015)", "key": {"chondrocytes": {"test_system": "chondrocytes", "assay_type": "cell-based", "excerpt": "(§1) Calf articular cartilage was obtained from the knee joints of eight to twelve month old animals and was processed within twenty-four hours after sacrifice. After removal of muscle and ligament, the cartilage was kept moist using phosphate buffer solution (PBS) to prevent tissue dehydration, and was aseptically peeled off from subchondral bone with a scalpel, and the cartilage pieces were further minced into smaller pieces (˜0.3-0.5×˜0.2-0.5 cm cubes). […] Chondrocytes were then enzymatically isolated from the tissue by incubation for overnight at 37° C. with gentle agitation in 0.2% collagenase in Dulbecco's modified eagle media (DMEM). After removal of tissue debris by filtration through cell strainer and the residual collagenase by 3× wash in PBS, cells were finally resuspended at a density of 2.5×10^6 cells/ml in chondrocyte medium. A 1 ml aliquot of the cell suspension was dispensed into either a 15 ml Falcon centrifuge tube or a 96 deep-well plate and centrifuged at 2000×g for five minutes. The chondrocyte pellets were incubated at 37° C. in a humidified atmosphere of 5% CO2 for two to three weeks with a medium change every other day.\n(§2) As an alternative to using calf articular cartilage, a commercial Alginate Recovered Chondrocytes (ARC) system was also used (Articular Engineering, LLC (Northbrook, Ill.)). Use of the commercial system cut down on labor and time in producing chondrocyte pellet. This system produced cartilaginous tissue in vitro using bovine chondrocytes. The first step consisted of culturing chondrocytes in alginate under conditions optimal for the formation of a cell-associated matrix (CM). The second step allowed these cells with their CM, after recovery, to rapidly form and become integrated into a solid mass of cartilage on a porous insert within two weeks. This tissue is rich in cells surrounded by a cell-associated matrix that is degraded rapidly when the cells are exposed to IL-1. ARC tissues in 3 mm punches at delivery were first dispensed into a 96 deep-well plate, one punch per well, for compound treatment. The subsequent procedures were the same as those used for the chondrocyte pellets.\n(§3) Chondrocyte pellets were washed once with 1 ml of Chondrocyte Stimulation Medium and equilibrated in the same medium at room temperature for fifteen to thirty minutes. Compounds were dissolved in H2O, Ethanol or dimethyl sulfoxide (DMSO) (10^−2 M) according to suppliers' instructions and further diluted with Chondrocyte Stimulation Medium to the required concentrations. DMSO concentrations in the culture media should not exceed 1%; this concentration of DMSO has no effect on cartilage proteoglycan metabolism in response to cytokines.\n(§4) The pellets were first treated with compounds at desired concentrations at 37° C. for one hour and then incubated for three to five days in the absence or presence of 10 ng/ml of IL-1β. At the end of the incubation, media and pellets were harvested and frozen for further analysis. Pellets were also fixed as needed in 4% (w/v) paraformaldehyde in PBS for histology analysis.\nThe LDH activity was determined colorimetrically in an enzymatic test based on the conversion of lactic acid to pyruvate in the presence of chromagenic substrate tetrazolium salt INT that was reduced to formazan."}, "[1]": {"test_system": "injured cartilage explants, GAG release", "assay": "drop tower design model: GAG release", "assay_type": "cell-based, bovine", "excerpt": "(§5) The device comprises a vertical rail that guides a sliding weight from 0.1 kg to 3 kg directly onto a force transducer which is situated at the bottom of the device. A sphere-shaped 2 mm indenter resting on a specimen is located at the bottom of the vertical rail. The indenter is held by a stop screw. The specimen is rigidly attached to a tissue holder underneath the indenter, to avoid side movements, the specimen is rigidly attached to the tissue holder. In this manner, the force transducer transduces a force indirectly onto the specimen. Adjusting the weight of a mass and height from which the mass drops varies the magnitude of the intended impact. For example, a weight mass (e.g., […]) held by a weight holder can be released from a height of e.g., 36 cm and dropped onto the force transducer.\nSamples for compound evaluation were tested using either of two different methods to induce inflammatory conditions. One method utilized media conditioned from peripheral blood mononuclear cells (PBMCs) stimulated with LPS (“+LPS”) or non-inflammatory media without LPS (“−LPS”). Another method utilized the absence or presence of a cocktail of cytokines.\nIn the first method, bovine or human PBMCs were freshly prepared using Ficoll gradient by Lampire Biological Laboratories, Inc. PBMCs in RPMI w/10% FCS at delivery were spun down at 1500 rpm for twenty minutes and the cell pellet was washed twice with 1×PBS to wash off the residual Ficoll. The cells were then resuspended at a density of 1×10^6/ml in RPMI supplemented with 10% FCS, 1× Antibiotics-Antimycotics. The suspension was divided into two aliquots. One aliquot was stimulated with 10 μg/ml of LPS and the other was not stimulated. Both aliquots were then incubated at 37° C., 5% CO2 for twenty-four to seventy-two hours. The conditioned media with or without LPS stimulation are collected, aliquoted, and stored in −80° C. for a maximum of three months. Each conditioned medium was assessed for levels of pro-inflammatory cytokines to ensure their secretion from PBMC. A representative cytokine, IL-6, was assayed by ELISA using a Human IL-6 Quantikine kit and it was shown that the LPS-stimulated medium had at least 10 ng/ml of IL-6, while IL-6 was undetectable in the unstimulated medium.\nIn the second method, the explants were cultured at 37° C., 5% CO2 either in stimulated or non-stimulated conditioned medium as described above or in defined medium containing DMEM supplemented with 1% FCS, 1× insulin-transferrin-sodium selenite media supplement and Antibiotics-Antimycotics in the presence or absence of a cocktail of cytokines containing 10 ng/ml of IL-1β, 100 ng/ml of TNFα and 5 ng/ml of IFN-γ. The compounds were solubilized in H2O, Ethanol or DMSO (10^−2 M) according to suppliers' instructions and further diluted with either conditioned medium stimulated with or without LPS to the required concentrations. DMSO concentrations in the culture media never exceeded 1%. This concentration of DMSO has no effect on cartilage proteoglycan metabolism in response to cytokines. The injured and noninjured cartilage explants were treated with compound-containing medium for three to five days. The specimens were first treated with compounds at desired concentrations at 37° C. for one hour and then incubated for three to five days in the absence or presence of the cocktail of cytokines. At the end of the incubation, media and cartilage samples were harvested and frozen for further analysis.\nGlycosaminoglycan (GAG) levels in the culture media or cartilage were determined by measuring the amount of polyanionic material reacting with 1,9-dimethylmethylene blue (DME) as detected by absorbance at 525 nm, using shark chondroitin sulfate as a standard. The DME blue dye-binding solution was prepared by dissolving 16 mg of DME blue in a solution containing 0.304% glycine, 0.23% NaCl, 9.5 mM HCl, pH=3.0 with A525 equaling 0.31. […]"}, "[2]": {"test_system": "injured cartilage explants", "assay_type": "cell-based", "excerpt": "as §5"}, "[3]": {"test_system": "IL-1β-stimulated GAG release, bovine chondrocyte pellets / ARC tissues", "assay": "chondrocyte pellet culture model: GAG degradation", "assay_type": "cell-based", "settings": "for GAG Release: Pellet Assay", "excerpt": "as §1, §2, §3\n[…] At the end of the incubation, media and pellets were harvested and frozen for further analysis. Pellets were also fixed as needed in 4% (w/v) paraformaldehyde in PBS for histology analysis.\nGlycosaminoglycan (GAG) levels in the culture media were determined by measuring the amount of polyanionic material reacting with 1,9-dimethylmethylene blue (DME) as detected by absorbance at 525 nm, using shark chondroitin sulfate as a standard. The DME blue dye-binding solution was prepared by dissolving 16 mg of DME blue in a solution containing 0.304% glycine, 0.23% sodium chloride (NaCl), 9.5 mM hydrochloric acid (HCl), pH=3.0 with absorbance at 525 equal to 0.31. Proteoglycans and proteoglycan metabolites in chondrocyte pellet were released by digesting the pellet with 125 μg/ml of papain in 0.1 M PBS, pH 6.0, 5 mM cysteine, 5 mM ethylene-diamine-tetra-acetic acid disodium salt (Na2EDTA) at 50° C. for overnight. Results are reported as either micrograms of GAG per milliliter or percent of total GAG released into culture medium."}, "[4]": {"test_system": "IL-1β-stimulated NO production, bovine chondrocyte pellets / ARC tissues", "assay": "chondrocyte pellet culture model: total nitrite/nitrate (NO)", "assay_type": "cell-based", "settings": "Pellet Assay", "excerpt": "as §1, §2, §3, §4\nNitrate/Nitrite levels were measured using the Griess reaction (Green L. C. et al., “Analysis of Nitrate, Nitrite, and [15N]nitrate in Biological Fluids,” Anal. Biochem. 126: 131-138 (1982)) with aNitrate/Nitrite Colorimetric Assay Kit (Cayman Chemicals), the contents of which are incorporated herein by reference. The assay involved a simple two-step process. The first step involved conversion of nitrate in 50 μl of culture medium to nitrite utilizing nitrate reductase in a reaction volume of 100 μl at room temperature for two hours. The second step involved the addition of 50 μl of both Griess Reagent 1 and 2, which converted nitrite into a deep purple azo compound in ten minutes. Photometric measurement of the absorbance at 540 or 550 nm due to this azo chromophore accurately determined nitrite concentration. […]"}, "[5]": {"test_system": "IL-1β-stimulated PGE2 synthesis, bovine chondrocyte pellets / ARC tissues", "assay": "chondrocyte pellet culture model: PGE2", "assay_type": "cell-based", "settings": "for PGE2 Inhibition: Pellet Assay", "excerpt": "as §1, §2, §3, §4\nProstaglandin E2 (PGE2) was measured with a STAT-Prostaglandin E2 EIA ELISA kit (Cayman Biochemicals). This assay is based on the competition between PGE2 from 50 μl samples and a PGE2-alkaline phosphatase conjugate for a limited amount of PGE2 monoclonal antibody in a reaction volume of 150 μl at room temperature for one hour. The antibody-PGE2 complex bound to a goat polyclonal anti-mouse IgG that had been previously attached to the well. After washing to remove any unbound reagents, para-nitrophenyl phosphate (pNPP) was added to the well. The product of this enzymatic reaction absorbs strongly at 412 nm. Because of the large range in response to IL-1β and other cytokines, PGE2 values were converted to log scale prior to doing t-tests."}, "[6]": {"test_system": "PG release, arthritic joint tissues", "settings": "10^−5 moles/liter or 10^−7 moles/liter; cited from earlier work"}}}
{"compound": "CO[C@H]1C[C@@H]2CC[C@@H](C)[C@@](O)(O2)C(=O)C(=O)N2CCCC[C@H]2C(=O)O[C@H]([C@H](C)C[C@@H]2CC[C@@H](O)[C@H](OC)C2)CC(=O)[C@H](C)/C=C(\\C)[C@@H](O)[C@@H](OC)C(=O)[C@H](C)C[C@H](C)/C=C/C=C/C=C/1C", "note": "[Rapamycin, reference compound]", "values": [{"measurement": "cytotoxicity to chondrocytes (LDH, words)", "setting": "chondrocytes", "result": "little toxicity"}, {"measurement": "inhibition at 0.01 µM", "setting": "[1]; Bos taurus, at 0.01 μM", "result": 84, "unit": "%"}, {"measurement": "cytotoxicity (LDH, words)", "setting": "[2]", "result": "little cytotoxicity"}]}
{"compound": "CN1C(C(=O)Nc2ccccn2)=C(O)c2ccccc2S1(=O)=O", "note": "[Piroxicam, reference compound]", "values": [{"measurement": "GAG Release", "setting": "[3]", "result": "No effect"}, {"measurement": "GAG, inhibition of degradation/release", "setting": "[1]; injured cartilage explants, inflammatory conditions", "result": "No effect"}]}
{"compound": "Madecassoside", "values": [{"measurement": "GAG Release", "setting": "[3]", "result": "No effect"}, {"measurement": "NO Inhibition", "setting": "[4]", "result": "No effect"}, {"measurement": "PGE2 Inhibition", "setting": "[5]", "result": "No effect"}]}
{"compound": "Cc1ccc(C(=O)c2ccc(CC(=O)O)n2C)cc1", "note": "[Tolmetin, reference compound]", "values": [{"measurement": "GAG Release", "setting": "[3]", "result": "No effect"}, {"measurement": "NO Inhibition", "setting": "[4]", "result": "No effect"}]}
{"compound": "CC(C(=O)O)c1ccc(C(=O)c2ccccc2)s1", "note": "(stereo not shown) [Tiaprofenic Acid, reference compound]", "values": [{"measurement": "GAG Release", "setting": "[3]", "result": "No effect"}]}
{"compound": "COc1ccc2c(c1)c(CC(=O)O)c(C)n2C(=O)c1ccc(Cl)cc1", "note": "[indomethacin]", "values": [{"measurement": "PG release from arthritic joint tissues", "setting": "[6]", "result": "significantly inhibited"}]}
{"compound": "O=C(O)Cc1ccccc1Nc1c(Cl)cccc1Cl", "note": "[diclofenac]", "values": [{"measurement": "PG release from arthritic joint tissues", "setting": "[6]", "result": "significantly inhibited"}]}
{"compound": "O=C(O)c1cc(O)c2c(c1)C(=O)c1cccc(O)c1C2=O", "note": "[Rhein, reference compound]", "values": [{"measurement": "lowest concentration inhibiting proteoglycan degradation", "setting": "[3]; 10 ng/ml IL-1β, five days", "result": "≤ 0.035", "unit": "µM"}, {"measurement": "PGE2 synthesis", "setting": "[5]; diacerein at 5.4 μM, rhein at 0.35 μM, 10 ng/ml IL-1β", "result": "no effect"}, {"measurement": "cytotoxicity (LDH, words)", "setting": "[2]", "result": "tolerant"}]}
{"compound": "CC1(C)O[C@@H]2[C@@H](CO[C@@]3(COS(N)(=O)=O)OC(C)(C)O[C@@H]23)O1", "note": "[Topramax, reference compound]", "values": [{"measurement": "GAG Release", "setting": "[3]", "result": "No effect"}, {"measurement": "NO Inhibition", "setting": "[4]", "result": "No effect"}, {"measurement": "PGE2 Inhibition", "setting": "[5]", "result": "No effect"}]}
